# ChEMBL document CHEMBL3627650, “Design, synthesis, and evaluation of new endomorphin analogs with enhanced central antinociception after peripheral administration” (Bioorg Med Chem Lett, 2015)
# The source made the active and inactive calls. The rule behind the calls is not given here.
# Columns and labels:
# Mus musculus [1] = experiment: Antinociceptive activity in iv dosed mouse assessed as inhibition of tail flick measured at 5 to 60 mins; assay type: functional, organism-based
# Mus musculus [2] = experiment: Antinociceptive activity in mouse acute phase inflammatory pain model assessed as inhibition of formalin-induced licking/biting behavior at 16 mg/kg, iv in presence of opioid receptor antagonist naloxone; assay type: functional, organism-based
# [3] = target: Delta-type opioid receptor (Homo sapiens, UniProt P41143); experiment: Displacement of [3H]-DPDPE from delta opioid receptor (unknown origin) transfected in HEK293 cells; assay type: cell-based
# Mus musculus [4] = experiment: Antinociceptive activity in mouse assessed as inhibition of tail flick at 20 nmol, icv in presence of opioid receptor antagonist naloxone; assay type: functional, organism-based
# Mus musculus [5] = experiment: Antinociceptive activity in mouse assessed as inhibition of tail flick at 2 to 20 nmol, icv; assay type: functional, organism-based; conditions: TDE = time-dependent effect
# Mus musculus [6] = experiment: Antinociceptive activity in mouse assessed as inhibition of tail flick at 4 to 16 mg/kg, iv measured at 60 mins relative to control; assay type: functional
# Mus musculus [7] = experiment: Antinociceptive activity in mouse assessed as inhibition of tail flick at 16 mg/kg, iv in presence of opioid receptor antagonist naloxone; assay type: functional, organism-based
# Mus musculus [8] = experiment: Antinociceptive activity in mouse prolonged tonic phase inflammatory pain model assessed as inhibition of formalin-induced licking/biting behavior at 16 mg/kg, iv in presence of opioid receptor antagonist naloxone; assay type: functional, organism-based
# Mus musculus [9] = experiment: Antinociceptive activity in mouse assessed as inhibition of tail flick at 16 mg/kg, iv in presence of opioid receptor antagonist naloxone methiodide; assay type: functional, organism-based
# Mus musculus [10] = experiment: Antinociceptive activity in mouse assessed as inhibition of tail flick at 16 mg/kg, iv measured at 5 to 60 mins relative to control; assay type: functional
# Mu-type opioid receptor [11] = target: T1, Mu-type opioid receptor (Homo sapiens, UniProt P35372); experiment: Agonist activity at mu opioid receptor (unknown origin) transfected in HEK293 cells assessed as inhibition of forskolin-stimulated cAMP production; assay type: functional, cell-based
# Mus musculus [12] = experiment: Antinociceptive activity in iv dosed mouse acute phase inflammatory pain model assessed as inhibition of formalin-induced licking/biting behavior; assay type: functional, organism-based
# Mu-type opioid receptor [13] = target: T1, Mu-type opioid receptor; experiment: Displacement of [3H]-DAMGO from mu opioid receptor (unknown origin) transfected in HEK293 cells; assay type: cell-based
# Mus musculus [14] = experiment: Antinociceptive activity in iv dosed mouse prolonged tonic phase inflammatory pain model assessed as inhibition of formalin-induced licking/biting behavior; assay type: functional, organism-based
# Homo sapiens = species: Homo sapiens; experiment: Selectivity ratio of Ki for delta opioid receptor (unknown origin) to Ki for mu opioid receptor (unknown origin)
# Mus musculus [15] = experiment: Antinociceptive activity in icv dosed mouse assessed as inhibition of tail flick measured at 5 to 60 mins; assay type: functional; conditions: for ED50: central
# Mus musculus [16] = experiment: Antinociceptive activity in mouse assessed as inhibition of tail flick at 2 to 20 nmol, icv measured up to 30 mins relative to control; assay type: functional
# Mus musculus [17] = experiment: Antinociceptive activity in mouse acute phase inflammatory pain model assessed as inhibition of formalin-induced licking/biting behavior at 4 mg/kg, iv; assay type: functional, organism-based
# Mus musculus [18] = experiment: Antinociceptive activity in mouse assessed as inhibition of tail flick at 4 mg/kg, iv measured at 5 to 60 mins; assay type: functional, organism-based
# Mus musculus [19] = experiment: Antinociceptive activity in mouse assessed as inhibition of tail flick at 2 to 20 nmol, icv measured after 30 mins; assay type: functional, organism-based
# Mus musculus [20] = experiment: Antinociceptive activity in mouse prolonged tonic phase inflammatory pain model assessed as inhibition of formalin-induced licking/biting behavior at 4 mg/kg, iv; assay type: functional, organism-based
# T1 sequence (P35372 whole entry): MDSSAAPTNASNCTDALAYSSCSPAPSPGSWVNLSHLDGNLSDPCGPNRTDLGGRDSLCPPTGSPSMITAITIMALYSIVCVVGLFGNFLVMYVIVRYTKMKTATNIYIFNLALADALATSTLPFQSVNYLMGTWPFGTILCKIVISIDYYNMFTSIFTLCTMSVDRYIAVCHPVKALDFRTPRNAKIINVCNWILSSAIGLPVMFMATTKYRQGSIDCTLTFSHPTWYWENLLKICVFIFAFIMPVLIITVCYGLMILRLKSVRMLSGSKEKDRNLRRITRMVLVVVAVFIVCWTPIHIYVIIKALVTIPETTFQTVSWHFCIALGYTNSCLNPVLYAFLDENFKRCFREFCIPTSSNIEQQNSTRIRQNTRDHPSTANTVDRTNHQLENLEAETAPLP
# Chain of Delta-type opioid receptor (P41143 whole entry): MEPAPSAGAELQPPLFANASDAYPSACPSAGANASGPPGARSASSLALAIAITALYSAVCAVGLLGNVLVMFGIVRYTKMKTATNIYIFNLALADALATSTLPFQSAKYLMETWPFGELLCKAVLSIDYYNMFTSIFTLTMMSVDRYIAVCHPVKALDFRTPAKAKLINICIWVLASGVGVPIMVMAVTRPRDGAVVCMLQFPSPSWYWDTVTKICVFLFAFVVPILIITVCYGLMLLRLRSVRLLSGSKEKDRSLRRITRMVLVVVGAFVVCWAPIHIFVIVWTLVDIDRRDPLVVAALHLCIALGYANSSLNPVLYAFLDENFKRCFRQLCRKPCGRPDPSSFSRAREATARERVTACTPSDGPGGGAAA
Structure (SMILES),Activity (Mus musculus [1]),Activity (Mus musculus [2]),Ki [3],Activity (Mus musculus [4]),Activity (Mus musculus [5]),MPE (Mus musculus [6]),Activity (Mus musculus [7]),Activity (Mus musculus [8]),Activity (Mus musculus [9]),MPE (Mus musculus [10]),EC50 (Mu-type opioid receptor [11]),Emax (Mu-type opioid receptor [11]),Activity (Mus musculus [12]),Ki (Mu-type opioid receptor [13]),Activity (Mus musculus [14]),Ratio Ki (Homo sapiens),Activity (Mus musculus [15]),ED50 (Mus musculus [15]),also measured
C=C(C(N)=O)[C@H](NC(=O)[C@H](Cc1c[nH]c2ccccc12)NC(=O)[C@@H]1CCCN1C(=O)[C@@H](N)Cc1ccc(O)cc1)c1cccs1,Dose-dependent effect,inactive,12000 nM,inactive,tde,25%,inactive,inactive,Active,86.6%,0.0629 nM,98.2%,Dose-dependent effect,0.565 nM,Dose-dependent effect,21300,Dose-dependent effect,0.00207 µmol/kg,
NC(=O)[C@H](Cc1ccccc1)NC(=O)[C@H](Cc1c[nH]c2ccccc12)NC(=O)[C@@H]1CCCN1C(=O)[C@@H](N)Cc1ccc(O)cc1 [ENDOMORPHIN-1],,,,,,,,,,,,,,,,,,,MPE (Mus musculus [16]): 52.1%; Activity (Mus musculus [17]): inactive; Activity (Mus musculus [18]): inactive; Activity (Mus musculus [19]): inactive; Activity (Mus musculus [20]): inactive
C=C(C(N)=O)[C@H](NC(=O)[C@H](Cc1c[nH]c2ccccc12)NC(=O)[C@@H]1CCCN1C(=O)[C@@H](N)Cc1ccc(O)cc1)c1ccsc1,Dose-dependent effect,inactive,13300 nM,inactive,tde,25%,inactive,inactive,Active,89.8%,0.0643 nM,97%,Dose-dependent effect,0.515 nM,Dose-dependent effect,25800,Dose-dependent effect,0.00223 µmol/kg,
